Experimental data from patent US12679878B2, “CRF2 receptor agonists and their use in therapy” (SANOFI, priority 2020, dated 2026).
Starred links: 1 amine or outer side, 2 acyl side, 3 side chain; linkers in the order of their positions; H or OH if unused. Non-standard residues stand in square brackets, D forms with d. Residues, ends and D or L forms follow the SMILES beside them. Groups on a side chain read outwards from the residue. *: point of attachment. γGlu = O=C(O)[C@H](CCC(=O)[*:2])N[*:1]; Palmitoyl = CCCCCCCCCCCCCCCC(=O)*; AEEA = NCCOCCOCC(=O)O; Aib = CC(C)(N)C(=O)O

Biological target: T1, human CRF2α receptor (Homo sapiens, UniProt Q13324)
T1 construct: expressed in transfected cells; host or cells: TeloHEAC
T1 sequence (Q13324 1-411): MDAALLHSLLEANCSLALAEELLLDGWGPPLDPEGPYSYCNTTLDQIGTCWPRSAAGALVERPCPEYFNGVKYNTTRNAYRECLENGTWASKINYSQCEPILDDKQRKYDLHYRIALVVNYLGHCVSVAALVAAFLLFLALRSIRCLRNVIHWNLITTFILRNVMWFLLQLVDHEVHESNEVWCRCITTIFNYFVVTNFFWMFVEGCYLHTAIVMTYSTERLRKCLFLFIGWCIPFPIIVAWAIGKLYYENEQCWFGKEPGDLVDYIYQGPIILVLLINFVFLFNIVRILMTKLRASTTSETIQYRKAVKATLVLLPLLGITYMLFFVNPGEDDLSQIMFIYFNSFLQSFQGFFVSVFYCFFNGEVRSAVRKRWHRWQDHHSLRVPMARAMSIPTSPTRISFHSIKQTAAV
Experiment: cAMP agonism at human CRF2α receptor in TeloHEAC cells, FA modified peptides (Example 19.9)
Assay type: cell-based
Settings: 0% HSA, relative to urocortin 2
Experimental: Agonism of compounds for human corticotropin-releasing factor 2α (CRF2α receptor) was determined by a functional assay measuring cAMP modulation upon treatment of TeloHEAC cells stably expressing human CRF2α receptor.
Compounds were dissolved at 0.5 mM in 100% DMSO and serially diluted (1:2) in 100% DMSO for 16 dilutions. 20 nL of each dilution was then transferred to 384-well assay plate using an acoustic droplet ejection instrument. 5 μL of compound buffer (1×HBSS; 20 mM HEPES, 2 mM IBMX, 0% or 0.2% HSA) were then added to each well.
Prior to use, frozen cells were thawed quickly at 37° C. and washed (5 min at 900 rpm) with 20 mL cell buffer (1×HBSS; 20 mM HEPES). Cells were resuspended in cell buffer and adjusted to a cell density of 800.000 cells/ml.
5 μL cells (final dell density: 4000 cells/well) were dispensed in the compound-containing 384-well assay plate and incubated for 30 minutes 37° C.
The CAMP level in treated cells was determined using the Cisbio 62AM4PEC kit according to manufacturer's instruction. Finally, plates were incubated for 1 h at room temperature before measuring the fluorescence ratio between 665/620 nm.
The percent activity value (E %) was calculated by setting 100 nM of urocortin 2 (UCN2) as 100%. The in vitro potency of the compounds was quantified by determining the concentrations that caused 50% activation of maximal response (EC50) relative to urocortin 2.

SMILES	EC50 [nM]
CCCCCCCCCCCCCCCC(=O)N[C@@H](CCC(=O)N[C@@H](CCC(=O)NCCOCCOCC(=O)NCCOCCOCC(=O)NCCCC[C@H](NC(=O)[C@H](CC(C)C)NC(=O)[C@H](CCCCN)NC(=O)[C@@H](NC(=O)[C@@H]1CCCN1C(=O)[C@H](NC(=O)[C@H](CC(=O)O)NC(=O)[C@H](CC(C)C)NC(=O)[C@H](CO)NC(=O)[C@H](CC(C)C)NC(=O)[C@@H](NC(=O)[C@@H](N)[C@@H](C)CC)C(C)C)C(C)C)[C@@H](C)CC)C(=O)N[C@@H](CCC(N)=O)C(=O)N[C@H](C(=O)N[C@@H](CC(C)C)C(=O)N[C@@H](CC(C)C)C(=O)N[C@@H](CCCCN)C(=O)N[C@@H](CCC(N)=O)C(=O)N[C@@H](CCC(=O)O)C(=O)N[C@@H](CCCNC(=N)N)C(=O)N[C@@H](CCC(N)=O)C(=O)N[C@@H](CCCCN)C(=O)NC(C)(C)C(=O)N[C@@H](CCC(N)=O)C(=O)N[C@@H](CCCNC(=N)N)C(=O)N[C@@H](CCC(=O)O)C(=O)N[C@@H](CCC(N)=O)C(=O)N[C@@H](C)C(=O)N[C@@H](CCC(=O)O)C(=O)N[C@@H](CCCCN)C(=O)N[C@@H](CC(N)=O)C(=O)N[C@@H](CCCCN)C(=O)N[C@@H](CCC(N)=O)C(=O)N[C@H](C(=O)N[C@@H](CC(C)C)C(=O)N[C@@H](C)C(=O)N[C@@H](CCC(N)=O)C(=O)N[C@H](C(N)=O)C(C)C)[C@@H](C)CC)[C@@H](C)CC)C(=O)O)C(=O)O [compound 206] (H-IVLSLD[dV]PIKLK([AEEA-AEEA-γGlu-γGlu-Palmitoyl])QILLKQERQK[Aib]QREQAEKNKQILAQV-NH2; N-terminus assumed)	0.09
CCCCCCCCCCCCCCCC(=O)N[C@@H](CCC(=O)NCCOCCOCC(=O)NCCOCCOCC(=O)NCCCC[C@H](NC(=O)[C@H](CC(C)C)NC(=O)[C@H](CCCCN)NC(=O)[C@@H](NC(=O)[C@@H]1CCCN1C(=O)[C@H](NC(=O)[C@H](CC(=O)O)NC(=O)[C@H](CC(C)C)NC(=O)[C@H](CO)NC(=O)[C@H](CC(C)C)NC(=O)[C@@H](NC(=O)[C@@H](N)[C@@H](C)CC)C(C)C)C(C)C)[C@@H](C)CC)C(=O)N[C@@H](CCC(N)=O)C(=O)N[C@H](C(=O)N[C@@H](CC(C)C)C(=O)N[C@@H](CC(C)C)C(=O)N[C@@H](CCCCN)C(=O)N[C@@H](CCC(N)=O)C(=O)N[C@@H](CCC(=O)O)C(=O)N[C@@H](CCCNC(=N)N)C(=O)N[C@@H](CCC(N)=O)C(=O)N[C@@H](CCCCN)C(=O)N[C@@H](CCCCN)C(=O)NC(C)(C)C(=O)N[C@@H](CCCNC(=N)N)C(=O)N[C@@H](CCC(N)=O)C(=O)N[C@@H](CCCCN)C(=O)N[C@@H](C)C(=O)N[C@@H](CCC(=O)O)C(=O)N[C@@H](CCCCN)C(=O)N[C@@H](CC(N)=O)C(=O)N[C@@H](CCCCN)C(=O)N[C@@H](CCC(N)=O)C(=O)N[C@H](C(=O)N[C@@H](CC(C)C)C(=O)N[C@@H](C)C(=O)N[C@@H](CCC(N)=O)C(=O)N[C@H](C(N)=O)C(C)C)[C@@H](C)CC)[C@@H](C)CC)C(=O)O [compound 210] (H-IVLSLD[dV]PIKLK([AEEA-AEEA-γGlu-Palmitoyl])QILLKQERQKK[Aib]RQKAEKNKQILAQV-NH2)	2.98
CCCCCCCCCCCCCCCC(=O)N[C@@H](CCC(=O)N[C@@H](CCC(=O)NCCOCCOCC(=O)NCCOCCOCC(=O)NCCCC[C@H](NC(=O)[C@H](CC(C)C)NC(=O)[C@H](CCCCN)NC(=O)[C@@H](NC(=O)[C@@H]1CCCN1C(=O)[C@H](NC(=O)[C@H](CC(=O)O)NC(=O)[C@H](CC(C)C)NC(=O)[C@H](CO)NC(=O)[C@H](CC(C)C)NC(=O)[C@@H](NC(=O)[C@@H](N)[C@@H](C)CC)C(C)C)C(C)C)[C@@H](C)CC)C(=O)N[C@@H](CCC(N)=O)C(=O)N[C@H](C(=O)N[C@@H](CC(C)C)C(=O)N[C@@H](CC(C)C)C(=O)N[C@@H](CCCCN)C(=O)N[C@@H](CCC(N)=O)C(=O)N[C@@H](CCC(=O)O)C(=O)N[C@@H](CCCNC(=N)N)C(=O)N[C@@H](CCC(N)=O)C(=O)N[C@@H](CCCCN)C(=O)N[C@@H](CCCCN)C(=O)NC(C)(C)C(=O)N[C@@H](CCCNC(=N)N)C(=O)N[C@@H](CCC(N)=O)C(=O)N[C@@H](CCCCN)C(=O)N[C@@H](C)C(=O)N[C@@H](CCC(=O)O)C(=O)N[C@@H](CCCCN)C(=O)N[C@@H](CC(N)=O)C(=O)N[C@@H](CCCCN)C(=O)N[C@@H](CCC(N)=O)C(=O)N[C@H](C(=O)N[C@@H](CC(C)C)C(=O)N[C@@H](C)C(=O)N[C@@H](CCC(N)=O)C(=O)N[C@H](C(N)=O)C(C)C)[C@@H](C)CC)[C@@H](C)CC)C(=O)O)C(=O)O [compound 211] (H-IVLSLD[dV]PIKLK([AEEA-AEEA-γGlu-γGlu-Palmitoyl])QILLKQERQKK[Aib]RQKAEKNKQILAQV-NH2)	0.94

Further lines, results first:

EC50 [nM]	SMILES
0.32	CCCCCCCCCCCCCCCC(=O)N[C@@H](CCC(=O)NCCOCCOCC(=O)NCCOCCOCC(=O)NCCCC[C@H](NC(=O)[C@H](CC(C)C)NC(=O)[C@H](CCCCN)NC(=O)[C@@H](NC(=O)[C@@H]1CCCN1C(=O)[C@H](NC(=O)[C@H](CC(=O)O)NC(=O)[C@H](CC(C)C)NC(=O)[C@H](CO)NC(=O)[C@H](CC(C)C)NC(=O)[C@@H](NC(=O)[C@@H](N)[C@@H](C)CC)C(C)C)C(C)C)[C@@H](C)CC)C(=O)N[C@@H](CCC(N)=O)C(=O)N[C@H](C(=O)N[C@@H](CC(C)C)C(=O)N[C@@H](CC(C)C)C(=O)N[C@@H](CCCCN)C(=O)N[C@@H](CCC(N)=O)C(=O)N[C@@H](CCC(=O)O)C(=O)N[C@@H](CCCNC(=N)N)C(=O)N[C@@H](CCC(N)=O)C(=O)N[C@@H](CCCCN)C(=O)NC(C)(C)C(=O)N[C@@H](CCC(N)=O)C(=O)N[C@@H](CCCNC(=N)N)C(=O)N[C@@H](CCC(=O)O)C(=O)N[C@@H](CCC(N)=O)C(=O)N[C@@H](C)C(=O)N[C@@H](CCC(=O)O)C(=O)N[C@@H](CCCCN)C(=O)N[C@@H](CC(N)=O)C(=O)N[C@@H](CCCCN)C(=O)N[C@@H](CCC(N)=O)C(=O)N[C@H](C(=O)N[C@@H](CC(C)C)C(=O)N[C@@H](C)C(=O)N[C@@H](CCC(N)=O)C(=O)N[C@H](C(N)=O)C(C)C)[C@@H](C)CC)[C@@H](C)CC)C(=O)O [compound 205] (H-IVLSLD[dV]PIKLK([AEEA-AEEA-γGlu-Palmitoyl])QILLKQERQK[Aib]QREQAEKNKQILAQV-NH2; N-terminus assumed)
4.48	CCCCCCCCCCCCCCCC(=O)N[C@@H](CCC(=O)NCCCC[C@H](NC(=O)[C@H](CC(C)C)NC(=O)[C@H](CCCCN)NC(=O)[C@@H](NC(=O)[C@@H]1CCCN1C(=O)[C@H](NC(=O)[C@H](CC(=O)O)NC(=O)[C@H](CC(C)C)NC(=O)[C@H](CO)NC(=O)[C@H](CC(C)C)NC(=O)[C@@H](NC(=O)[C@@H](N)[C@@H](C)CC)C(C)C)C(C)C)[C@@H](C)CC)C(=O)N[C@@H](CCC(N)=O)C(=O)N[C@H](C(=O)N[C@@H](CC(C)C)C(=O)N[C@@H](CC(C)C)C(=O)N[C@@H](CCCCN)C(=O)N[C@@H](CCC(N)=O)C(=O)N[C@@H](CCC(=O)O)C(=O)N[C@@H](CCCNC(=N)N)C(=O)N[C@@H](CCC(N)=O)C(=O)N[C@@H](CCCCN)C(=O)N[C@@H](CCCCN)C(=O)N[C@@H](CCC(N)=O)C(=O)N[C@@H](CCCNC(=N)N)C(=O)N[C@@H](CCC(=O)O)C(=O)N[C@@H](CCCCN)C(=O)N[C@@H](C)C(=O)N[C@@H](CCC(=O)O)C(=O)N[C@@H](CCCCN)C(=O)N[C@@H](CC(N)=O)C(=O)N[C@@H](CCCCN)C(=O)N[C@@H](CCC(N)=O)C(=O)N[C@H](C(=O)N[C@@H](CC(C)C)C(=O)N[C@@H](C)C(=O)N[C@@H](CCC(N)=O)C(=O)N[C@H](C(N)=O)C(C)C)[C@@H](C)CC)[C@@H](C)CC)C(=O)O [compound 213] (H-IVLSLD[dV]PIKLK([γGlu-Palmitoyl])QILLKQERQKKQREKAEKNKQILAQV-NH2)
0.15	CCCCCCCCCCCCCCCC(=O)N[C@@H](CCC(=O)NCCCC[C@H](NC(=O)[C@H](CC(C)C)NC(=O)CNC(=O)[C@@H](NC(=O)[C@@H]1CCCN1C(=O)[C@H](NC(=O)[C@H](CC(=O)O)NC(=O)[C@H](CC(C)C)NC(=O)[C@H](CO)NC(=O)[C@H](CC(C)C)NC(=O)[C@@H](NC(=O)[C@@H](N)[C@@H](C)CC)C(C)C)C(C)C)[C@@H](C)CC)C(=O)N[C@@H](CCC(N)=O)C(=O)N[C@H](C(=O)N[C@@H](CC(C)C)C(=O)N[C@@H](CC(C)C)C(=O)N[C@@H](CCCCN)C(=O)N[C@@H](CCC(N)=O)C(=O)N[C@@H](CCC(=O)O)C(=O)N[C@@H](CCCNC(=N)N)C(=O)N[C@@H](CCC(N)=O)C(=O)N[C@@H](CCCCN)C(=O)N[C@@H](CCCCN)C(=O)NC(C)(C)C(=O)N[C@@H](CCCNC(=N)N)C(=O)N[C@@H](CCC(=O)O)C(=O)N[C@@H](CCC(N)=O)C(=O)N[C@@H](C)C(=O)N[C@@H](CCC(=O)O)C(=O)N[C@H](C(=O)N[C@@H](CC(N)=O)C(=O)N[C@@H](CCCCN)C(=O)N[C@@H](CCC(N)=O)C(=O)N[C@H](C(=O)N[C@@H](CC(C)C)C(=O)N[C@@H](C)C(=O)N[C@@H](CCC(N)=O)C(=O)N[C@H](C(N)=O)C(C)C)[C@@H](C)CC)[C@@H](C)O)[C@@H](C)CC)C(=O)O [compound 215] (H-IVLSLD[dV]PIGLK([γGlu-Palmitoyl])QILLKQERQKK[Aib]REQAETNKQILAQV-NH2; N-terminus assumed)
